Measured values: article PMC5517430, “2,3,7,8-Tetrachlorodibenzo-p-dioxin (TCDD)-elicited effects on bile acid homeostasis: Alterations in biosynthesis, enterohepatic circulation, and microbial metabolism” (Scientific Reports, 2017)

Test system: hepatic gene expression
Experiment: Hepatic RNA-Seq differential gene expression (fold change, P1(t), ED50, BMD, BMDL)
Format: in vivo, mouse
Procedure: Frozen ileal epithelium scrapings and liver samples were homogenized in TRIzol (Ambion, Waltham, MA) using a Mixer Mill 300 tissue homogenizer (Retsch, Germany) and total RNA was isolated as previously described. RNA was quantified using a Nano-drop spectrophotometer (Thermo Scientific, Wilmington, DE) at 260 nm, and purity was assessed using the A260/A280 ratio and the Caliper LabChip GX (Perkin Elmer, Waltham, MA).
Dose-dependent gene expression was examined using RNA-Seq performed at the MSU Research Technology Support Facility (RTSF) Genomics Core (rtsf.natsci.msu.edu/genomics). Ileal libraries from three independent biological replicates (n = 3) were prepared using the Ovation Mouse RNA-Seq System 1–16 sample preparation kit (NuGen, San Carlos, CA), with an additional DNase step. Libraries were quantified and sequenced as previously described, using a read depth of ~30 M per sample[33], [67]. Quality was determined using FASTQC v0.11.3 and adaptor sequences were removed using Trimmomatic v0.33. Reads were mapped to the mouse reference genome (GRCm38 release 81) using Bowtie2 v2.2.6 and TopHat2 v2.1.0. Alignments were converted to SAM format using SAMTools v1.2.0. For TCDD-mediated differential gene expression, fold changes were calculated relative to vehicle controls. Hepatic RNA-Seq analysis was previously published. Genes were considered differentially expressed if |fold change| ≥ 1.5 and statistical P1(t) value ≥ 0.8 at one or more doses. RNA-Seq datasets for the ileal epithelium and liver were deposited in the Gene Expression Omnibus (GEO; accession number GSE89430 and GSE87519, respectively). The RNA-Seq results (fold changes, P1(t) values) for each gene discussed in the manuscript have been compiled in Supplementary Table S1. […] Estimation of benchmark dose (BMD) and BMD lower confidence limit (BMDL) was performed using BMDExpress[69] as previously described, and has been included in Supplementary Table S1.

[1] = liver, 0.01 µg/kg TCDD, relative to vehicle control
[2] = liver, 0.03 µg/kg TCDD, relative to vehicle control
[3] = liver, 0.1 µg/kg TCDD, relative to vehicle control
[4] = liver, 0.3 µg/kg TCDD, relative to vehicle control
[5] = liver, 1 µg/kg TCDD, relative to vehicle control
[6] = liver, 3 µg/kg TCDD, relative to vehicle control
[7] = liver, 10 µg/kg TCDD, relative to vehicle control
[8] = liver, 30 µg/kg TCDD, relative to vehicle control
[9] = male mice, 30 µg/kg TCDD every 4 d for 28 d
[10] = male mice, TCDD every 4 d for 28 d

Clc1cc2c(cc1Cl)Oc1cc(Cl)c(Cl)cc1O2 [TCDD, 2,3,7,8-tetrachlorodibenzo-p-dioxin]
Slc6a6 (TAUT) BMD (liver): 11.24 µg/kg TCDD
Slc6a6 (TAUT) BMDL (liver): 8.25 µg/kg TCDD
Slc6a6 (TAUT) Differentially Expressed? (liver): YES
Slc6a6 (TAUT) ED50 (liver): 13.27 µg/kg TCDD
Slc10a1 (NTCP or LBAT) BMD (liver): 9.13 µg/kg TCDD
Slc10a1 (NTCP or LBAT) BMDL (liver): 4.73 µg/kg TCDD
Slc10a1 (NTCP or LBAT) Differentially Expressed? (liver): YES
Slc10a1 (NTCP or LBAT) ED50 (liver): 14.43 µg/kg TCDD
Slc27a5 BMD (liver): 4.42 µg/kg TCDD
Slc27a5 BMDL (liver): 3.04 µg/kg TCDD
Slc27a5 Differentially Expressed? (liver): YES
Slc27a5 ED50 (liver): 11.65 µg/kg TCDD
Slco1a1 (OATP1A1) BMD (liver): 8.64 µg/kg TCDD
Slco1a1 (OATP1A1) BMDL (liver): 3.68 µg/kg TCDD
Slco1a1 (OATP1A1) Differentially Expressed? (liver): YES
Slco1a1 (OATP1A1) ED50 (liver): 10.06 µg/kg TCDD
Slco1a4 (OATP1A4) BMD (liver): 0.56 µg/kg TCDD
Slco1a4 (OATP1A4) BMDL (liver): 0.000105 µg/kg TCDD
Slco1a4 (OATP1A4) Differentially Expressed? (liver): YES
Slco1a4 (OATP1A4) ED50 (liver): Not sigmoidal
Slco1b2 (OATP1B2) BMD (liver): 6.99 µg/kg TCDD
Slco1b2 (OATP1B2) BMDL (liver): 4.27 µg/kg TCDD
Slco1b2 (OATP1B2) Differentially Expressed? (liver): YES
Slco1b2 (OATP1B2) ED50 (liver): 12.87 µg/kg TCDD
Slco2b1 (OATP2B1) BMD (liver): 4.52 µg/kg TCDD
Slco2b1 (OATP2B1) BMDL (liver): 2.69 µg/kg TCDD
Slco2b1 (OATP2B1) Differentially Expressed? (liver): YES
Slco2b1 (OATP2B1) ED50 (liver): 11.16 µg/kg TCDD
Soat1 BMD (liver): No model fit
Soat1 BMDL (liver): No model fit
Soat1 Differentially Expressed? (liver): YES
Soat1 ED50 (liver): 8.88 µg/kg TCDD
Soat2 BMD (liver): 7.18 µg/kg TCDD
Soat2 BMDL (liver): 5.55 µg/kg TCDD
Soat2 Differentially Expressed? (liver): YES
Soat2 ED50 (liver): Not sigmoidal
Sqle BMD (liver): No model fit
Sqle BMDL (liver): No model fit
Sqle Differentially Expressed? (liver): YES
Sqle ED50 (liver): 19.37 µg/kg TCDD
Srebf2 BMD (liver): 8.52 µg/kg TCDD
Srebf2 BMDL (liver): 4.75 µg/kg TCDD
Srebf2 Differentially Expressed? (liver): YES
Srebf2 ED50 (liver): 15.74 µg/kg TCDD
Sult2a8 BMD (liver): 1.73 µg/kg TCDD
Sult2a8 BMDL (liver): 1.40 µg/kg TCDD
Sult2a8 Differentially Expressed? (liver): YES
Sult2a8 ED50 (liver): 11.63 µg/kg TCDD
Tm7sf2 BMD (liver): 14.47 µg/kg TCDD
Tm7sf2 BMDL (liver): 11.85 µg/kg TCDD
Tm7sf2 Differentially Expressed? (liver): YES
Tm7sf2 ED50 (liver): 17.41 µg/kg TCDD
Slc6a6 (TAUT) FC_0.01 [1]: 0.98
Slc10a1 (NTCP or LBAT) FC_0.01 [1]: 1.06
Slc27a5 FC_0.01 [1]: 0.96
Slco1a1 (OATP1A1) FC_0.01 [1]: 1.85
Slco1a4 (OATP1A4) FC_0.01 [1]: 0.83
Slco1b2 (OATP1B2) FC_0.01 [1]: 0.99
Slco2b1 (OATP2B1) FC_0.01 [1]: 1.02
Soat1 FC_0.01 [1]: 0.61
Soat2 FC_0.01 [1]: 1.08
Sqle FC_0.01 [1]: 1.57
Srebf2 FC_0.01 [1]: 1.04
Sult2a8 FC_0.01 [1]: 1.07
Tm7sf2 FC_0.01 [1]: 1.06
Slc6a6 (TAUT) FC_0.03 [2]: 0.99
Slc10a1 (NTCP or LBAT) FC_0.03 [2]: 1.13
Slc27a5 FC_0.03 [2]: 0.89
Slco1a1 (OATP1A1) FC_0.03 [2]: 1.27
Slco1a4 (OATP1A4) FC_0.03 [2]: 0.81
Slco1b2 (OATP1B2) FC_0.03 [2]: 1.11
Slco2b1 (OATP2B1) FC_0.03 [2]: 0.97
Soat1 FC_0.03 [2]: 0.71
Soat2 FC_0.03 [2]: 1.02
Sqle FC_0.03 [2]: 1.40
Srebf2 FC_0.03 [2]: 1.10
Sult2a8 FC_0.03 [2]: 1.00
Tm7sf2 FC_0.03 [2]: 0.92
Slc6a6 (TAUT) FC_0.1 [3]: 1.04
Slc10a1 (NTCP or LBAT) FC_0.1 [3]: 0.87
Slc27a5 FC_0.1 [3]: 0.83
Slco1a1 (OATP1A1) FC_0.1 [3]: 0.82
Slco1a4 (OATP1A4) FC_0.1 [3]: 0.42
Slco1b2 (OATP1B2) FC_0.1 [3]: 1.02
Slco2b1 (OATP2B1) FC_0.1 [3]: 0.91
Soat1 FC_0.1 [3]: 1.03
Soat2 FC_0.1 [3]: 1.01
Sqle FC_0.1 [3]: 1.57
Srebf2 FC_0.1 [3]: 1.00
Sult2a8 FC_0.1 [3]: 0.89
Tm7sf2 FC_0.1 [3]: 0.82
Slc6a6 (TAUT) FC_0.3 [4]: 1.15
Slc10a1 (NTCP or LBAT) FC_0.3 [4]: 1.02
Slc27a5 FC_0.3 [4]: 0.88
Slco1a1 (OATP1A1) FC_0.3 [4]: 1.03
Slco1a4 (OATP1A4) FC_0.3 [4]: 0.87
Slco1b2 (OATP1B2) FC_0.3 [4]: 1.08
Slco2b1 (OATP2B1) FC_0.3 [4]: 0.92
Soat1 FC_0.3 [4]: 0.85
Soat2 FC_0.3 [4]: 1.22
Sqle FC_0.3 [4]: 2.08
Srebf2 FC_0.3 [4]: 1.06
Sult2a8 FC_0.3 [4]: 0.81
Tm7sf2 FC_0.3 [4]: 1.05
Slc6a6 (TAUT) FC_1 [5]: 1.28
Slc10a1 (NTCP or LBAT) FC_1 [5]: 1.21
Slc27a5 FC_1 [5]: 0.86
Slco1a1 (OATP1A1) FC_1 [5]: 1.33
Slco1a4 (OATP1A4) FC_1 [5]: 0.45
Slco1b2 (OATP1B2) FC_1 [5]: 1.13
Slco2b1 (OATP2B1) FC_1 [5]: 1.01
Soat1 FC_1 [5]: 0.53
Soat2 FC_1 [5]: 1.23
Sqle FC_1 [5]: 1.92
Srebf2 FC_1 [5]: 0.99
Sult2a8 FC_1 [5]: 0.89
Tm7sf2 FC_1 [5]: 0.89
Slc6a6 (TAUT) FC_3 [6]: 1.14
Slc10a1 (NTCP or LBAT) FC_3 [6]: 1.09
Slc27a5 FC_3 [6]: 0.81
Slco1a1 (OATP1A1) FC_3 [6]: 1.24
Slco1a4 (OATP1A4) FC_3 [6]: 0.40
Slco1b2 (OATP1B2) FC_3 [6]: 0.92
Slco2b1 (OATP2B1) FC_3 [6]: 0.90
Soat1 FC_3 [6]: 0.77
Soat2 FC_3 [6]: 1.08
Sqle FC_3 [6]: 1.74
Srebf2 FC_3 [6]: 0.93
Sult2a8 FC_3 [6]: 0.65
Tm7sf2 FC_3 [6]: 1.24
Slc6a6 (TAUT) FC_10 [7]: 1.16
Slc10a1 (NTCP or LBAT) FC_10 [7]: 0.56
Slc27a5 FC_10 [7]: 0.48
Slco1a1 (OATP1A1) FC_10 [7]: 0.0276
Slco1a4 (OATP1A4) FC_10 [7]: 0.46
Slco1b2 (OATP1B2) FC_10 [7]: 0.65
Slco2b1 (OATP2B1) FC_10 [7]: 0.40
Soat1 FC_10 [7]: 1.16
Soat2 FC_10 [7]: 0.80
Sqle FC_10 [7]: 2.07
Srebf2 FC_10 [7]: 0.85
Sult2a8 FC_10 [7]: 0.12
Tm7sf2 FC_10 [7]: 0.97
Slc6a6 (TAUT) FC_30 [8]: 1.84
Slc10a1 (NTCP or LBAT) FC_30 [8]: 0.056
Slc27a5 FC_30 [8]: 0.06
Slco1a1 (OATP1A1) FC_30 [8]: 0.000843
Slco1a4 (OATP1A4) FC_30 [8]: 0.40
Slco1b2 (OATP1B2) FC_30 [8]: 0.13
Slco2b1 (OATP2B1) FC_30 [8]: 0.08
Soat1 FC_30 [8]: 3.59
Soat2 FC_30 [8]: 0.51
Sqle FC_30 [8]: 0.23
Srebf2 FC_30 [8]: 0.37
Sult2a8 FC_30 [8]: 0.00374
Tm7sf2 FC_30 [8]: 0.0549
Fgfr4 hepatic expression, fold repression [9]: 4.7 fold
Hmgcr hepatic expression [9]: no significant induction
Klb hepatic expression, fold repression [9]: 8.1 fold
Srebf2 hepatic expression, fold repression [9]: 2.7 fold
Hmgcr hepatic expression, max fold induction (male mice, 0.3–10 µg/kg TCDD every 4 d for 28 d): 3.4 fold
Abcb11 hepatic expression, fold repression [10]: 4.7 fold
Abcc2 hepatic expression [10]: unchanged
Akr1c6 hepatic expression, fold repression [10]: 22.1 fold
Akr1d1 hepatic expression, fold repression [10]: 16.3 fold
Amacr hepatic expression, fold repression [10]: 3.3 fold
Baat hepatic expression, fold repression [10]: 12.0 fold
Cdo1 hepatic expression, fold repression [10]: 2.7 fold
Ch25h hepatic expression, fold induction [10]: 6.1 fold
Csad hepatic expression, fold repression [10]: 4.5 fold
Cyp3a11 hepatic expression, fold repression [10]: 4.9 fold
Cyp3a13 hepatic expression, fold repression [10]: 17.0 fold
Cyp3a16 hepatic expression, fold repression [10]: 5.2 fold
Cyp3a25 hepatic expression, fold repression [10]: 6.0 fold
Cyp3a44 hepatic expression, fold repression [10]: 3.0 fold
Cyp3a57 hepatic expression, fold repression [10]: 2.4 fold
Cyp3a59 hepatic expression, fold repression [10]: 4.4 fold
Cyp7a1 hepatic expression, fold repression [10]: 39.7 fold
Cyp7b1 hepatic expression, fold repression [10]: 7.6 fold
Cyp8b1 hepatic expression, fold repression [10]: 4.4 fold
Cyp27a1 hepatic expression, fold repression [10]: 2.4 fold
Cyp46a1 hepatic expression, fold repression [10]: 2.1 fold
Hsd3b7 hepatic expression, fold repression [10]: 2.5 fold
Nr0b2 hepatic expression, fold repression [10]: 22.2 fold
Nr1h4 hepatic expression, fold repression [10]: 3.2 fold
Scp2 hepatic expression, fold repression [10]: 3.4 fold
Slc10a1 hepatic expression, fold repression [10]: 17.9 fold
Slc27a5 hepatic expression, fold repression [10]: 16.0 fold
Slco1a1 hepatic expression, fold repression [10]: 1186.3 fold
Slco1a4 hepatic expression, fold repression [10]: 2.5 fold
Slco1b2 hepatic expression, fold repression [10]: 7.9 fold
Slco2b1 hepatic expression, fold repression [10]: 12.9 fold
Sult2a8 hepatic expression, fold repression [10]: 267.5 fold
